“Also recorded” adds a separate entry of the source.
Tests used:
[1] = tested on: carrageenan-induced rat paw edema; experiment: Carrageenan-induced rat paw edema model (anti-inflammatory activity); assay type: in vivo; set-up: key to Potency (anti-inflammatory activity of tested compound/ibuprofen): ratio of % inhibition of edema (compound / ibuprofen); ibuprofen = 1.00; settings: for % Inhibition in Edema Thickness 1 h: 1 h after induction of inflammation; for % Inhibition in Edema Thickness 1 h / % Inhibition in Edema Thickness 2 h / % Inhibition in Edema Thickness 3 h: IP, dose molecularly equivalent to ibuprofen, n = 6; for % Inhibition in Edema Thickness 2 h: 2 h after induction of inflammation; for % Inhibition in Edema Thickness 3 h: 3 h after induction of inflammation; for Potency (anti-inflammatory activity of tested compound/ibuprofen): after 3 h of induction of inflammation, relative to ibuprofen; for anti-inflammatory activity (in words): compared with ibuprofen and parent compound 12
Text: The carrageenan-induced rat paw edema model was utilized to investigate the anti-inflammatory activity of compounds 12–19 relative to ibuprofen as a reference drug.
(§1) Adult albino rats of both sex weighing 100–140 g were used in evaluation of the anti-inflammatory, analgesic, ulcerogenic activity in addition to the histopathological study of the new pyrrolizines 12–19. Animal ethical use clearance was obtained from the Ethical Committee at the College of Pharmacy, Umm Al-Qura University. Normalization of the animals with laboratory conditions were achieved by keeping them in laboratory one week before starting the experiments. Standard rat pellet diet was used for feeding animals and water ad libitum.
The anti-inflammatory activity of the novel compounds 12–19 was evaluated in comparison with ibuprofen as a standard, using a rat paw edema model as described by Winter et al.. Adult albino rats of both sexes (100–140 gm) were used. Rats were uniformly hydrated by giving 3 mL water for each rat through gastric inoculation to reduce variability to edema response. Animals were then divided into groups of six animal each. The control group was given saline solution containing few drops of sodium carboxymethyl cellulose (CMC) 1% and DMSO. Ibuprofen (50 and 100 mg/kg) was given as standard drug. The new compounds 12–19 in a dose molecularly equivalent to ibuprofen were dissolved in 0.5 mL DMSO and CMC 1% was added dropwise with continuous triturating to complete the specified volume. The tested compounds were administered intraperitoneally (IP). The induction of inflammation was achieved by subcutaneous (SC) injection of carrageenan-sodium gel, into the sub-plantar region of the right hind paw. The dorsoventral diameter (thickness) of the right and left hind paw of each rat was measured using digital calipers with accuracy of 0.01 mm (Cole-Parmer, Vernon Hills, IL, USA). The thickness of edema was measured 1, 2 and 3 h after induction of inflammation. The left hind paw diameter served as a control for the degree of inflammation in the right hind paw. The changes in the edema thickness were expressed as mean ± SEM, Figure 4. The anti-inflammatory activity was calculated as % inhibition of inflammation = (1 − Lt/Lc) × 100. Where Lt is the mean increase in paw thickness in rats treated with the tested compounds and Lc is the mean increase in paw thickness in control group. Data were collected, and statistically analyzed by One way ANOVA followed by student-Newman-Keuls multiple comparison test, Table 2.

thermal pain (hot plate) = experiment: Hot-plate test (analgesic activity); assay type: in vivo, rat; settings: IP; for analgesic activity (in words): 0.24 and 0.48 mmol/kg, 2 h after injection, compared with ibuprofen
Procedure: A hot-plate was used to induce thermal pain and the cutoff time was fixed to 15 s [30]. […] The analgesic activity of the novel pyrrolizines were carried out using the thermal model (hot-plate test) according to a previous report [30]. An electronically controlled hot-plate (Harvard Apparatus Ltd., Kent, UK) was used and the cut-off time was 15 s and the temperature was adjusted to 52 ± 0.1 °C. Animals were then divided into groups of six animal each. Rats were assigned numbers of 1–6 in each group. The reference drug was given intraperitoneally at a dose of 50 mg/kg (0.24 mmol/kg) and 100 mg/kg (0.48 mmol/kg). […] The response latencies (time elapsed until licking paw or jumping) were measured and expressed as mean ± SEM. The percent changes (analgesic effects) of the tested compounds were calculated as percent change in latencies divided by baseline time (100 × (T1 − T0)/T0) and results were expressed as % change ± SEM, Figure 6.

rat stomach mucosa = experiment: Acute ulcerogenicity study; assay type: in vivo; settings: oral, 0.48 mmol/kg; for Ulcerogenicity UI (ulcer index): three days, n = 6
Procedure: GIT toxicity is the main serious side effect of the NSAIDs. In this work, the ulcerogenicity of the novel compounds 12–19 was evaluated according to the previous reported methodology. The tested compounds 12–19 and ibuprofen were given orally in a dose of 0.48 mmol/kg.
as §1
GIT toxicity was evaluated according to the previous report. Adult albino rats of both sexes were divided into groups of six animals each. The test compounds were dissolved first in 0.5 mL DMSO, then CMC (1%) was added dropwise with trituration. Rats were fasted 20 h before drug administration. The eight tested compounds and ibuprofen were given orally in a dose of 0.24 and 0.48 mmol/kg/day suspended in 1% CMC, while the control group received vehicle (1% CMC containing few drops of DMSO). Rats were then fasted for 2 h, allowed to feed for 2 h then fasted again for another 20 h. Other doses were given in the second and third days. In the fourth day, Pentobarbital (60 mg/kg IP) was used to induce deep anesthesia then rats were sacrificed. The stomachs were removed, opened along with the greater curvature and rinsed with 0.9% saline. The number of mucosal damages (red spots) were counted using magnifying lens and their severity (ulcerogenic severity) was graded in a scale from 0 to 3 as follows: (0) normal (no injury), (0.5) red coloration, (1) spot ulcer, (1.5) hemorrhagic streaks, (2) ulcer > 3 mm, (3) ulcer > 5 mm. The ulcer index was calculated using the following equation ulcer index (UI) = UN + US + UP/10, where UN is the average number pf ulcers per animal, US is the average of severity score, UP is the percent of animal with ulcer.

[2] = tested on: stomach mucosa, submucosa and mucosal glands; experiment: Histopathological study of rat stomach; assay type: in vivo; settings: rats of the ulcerogenicity test, haematoxylin and eosin stain
Text: The stomachs of the rats used in ulcerogenicity test were subjected to a histopathological study to visualize the deep effects of ibuprofen and tested compounds on the stomach mucosa, submucosa and mucosal glands. The specimens were stained with haematoxylin and eosin stain [33].
The study investigated the deep effect of the tested compounds on the mucosa, submucosa and mucosal gland. The stomachs which were opened longitudinally along the greater curvature were used and the specimens were taken from the stomachs of all cases. These specimens were fixed in 10% formalin solution for 72 h. The samples were processed and embedded in paraffin wax. Microtomy was done and 5 microns tissue sections were obtained and mounted on clean glass slides.

5-LOX = tested on: 5-LOX; set-up: method as in PMID 8021931, PMID 9396390, PMID 12660020, PMID 19719242; settings: literature values, Figures 1 and 2; cited from earlier work
COX-1 = settings: cited from earlier work; for IC50: literature values, Figures 1 and 2
COX-2 = tested on: COX-2; set-up: method as in PMID 10027870, PMID 8021931, PMID 12660020; settings: literature values, Figures 1 and 2; cited from earlier work
mPGES-1 = tested on: mPGES-1; set-up: method as in PMID 19719242; settings: cell free; cited from earlier work
rat paw edema = tested on: rat paw edema; set-up: method as in PMID 19913956; settings: in comparison with ketorolac; cited from earlier work
COX-1 (ovine) = target: T1, COX-1 (ovine) (Ovis aries, UniProt P05979); experiment: COX colorimetric inhibitor screening assay, COX-1
T1 sequence (P05979 25-600): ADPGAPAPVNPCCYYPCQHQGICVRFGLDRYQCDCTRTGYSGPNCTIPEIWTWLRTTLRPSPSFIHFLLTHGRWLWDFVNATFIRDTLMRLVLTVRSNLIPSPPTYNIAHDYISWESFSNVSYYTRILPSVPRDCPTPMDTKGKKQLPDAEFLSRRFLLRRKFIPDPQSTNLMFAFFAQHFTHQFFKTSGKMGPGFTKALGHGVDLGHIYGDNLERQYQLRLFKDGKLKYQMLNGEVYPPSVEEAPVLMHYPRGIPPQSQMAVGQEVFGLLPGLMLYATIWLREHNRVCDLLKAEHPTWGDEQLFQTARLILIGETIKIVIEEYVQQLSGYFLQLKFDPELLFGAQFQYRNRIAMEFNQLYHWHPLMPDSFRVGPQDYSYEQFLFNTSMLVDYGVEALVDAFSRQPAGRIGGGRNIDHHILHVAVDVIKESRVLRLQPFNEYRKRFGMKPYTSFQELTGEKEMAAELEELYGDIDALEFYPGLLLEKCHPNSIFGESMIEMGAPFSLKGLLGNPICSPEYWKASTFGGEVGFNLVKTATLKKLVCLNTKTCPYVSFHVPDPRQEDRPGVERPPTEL

[3] = target: T2, COX-2 (human recombinant) (Homo sapiens, UniProt P35354); experiment: COX colorimetric inhibitor screening assay, COX-2; settings: for SI (COX-2 selectivity index = IC50 of COX-1/IC50 of COX-2): in vitro
T2 sequence (P35354 18-604): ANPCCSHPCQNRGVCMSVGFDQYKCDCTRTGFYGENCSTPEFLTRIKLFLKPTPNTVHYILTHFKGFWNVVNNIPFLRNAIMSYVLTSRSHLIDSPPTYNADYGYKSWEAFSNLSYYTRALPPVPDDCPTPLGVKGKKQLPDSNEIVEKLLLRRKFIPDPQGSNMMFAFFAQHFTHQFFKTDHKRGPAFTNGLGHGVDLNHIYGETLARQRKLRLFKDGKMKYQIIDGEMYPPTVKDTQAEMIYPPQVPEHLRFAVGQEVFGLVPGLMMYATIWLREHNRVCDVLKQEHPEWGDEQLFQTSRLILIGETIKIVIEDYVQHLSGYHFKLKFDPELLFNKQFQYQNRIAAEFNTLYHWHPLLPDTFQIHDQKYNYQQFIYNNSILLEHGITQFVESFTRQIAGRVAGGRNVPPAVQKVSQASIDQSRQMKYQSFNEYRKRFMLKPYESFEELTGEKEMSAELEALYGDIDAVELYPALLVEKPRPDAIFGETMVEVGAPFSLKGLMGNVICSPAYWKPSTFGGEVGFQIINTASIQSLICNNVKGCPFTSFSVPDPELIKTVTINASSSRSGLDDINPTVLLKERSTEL

SMILES | % Inhibition in Edema Thickness 1 h [1] | % Inhibition in Edema Thickness 2 h [1] | % Inhibition in Edema Thickness 3 h [1] | Potency (anti-inflammatory activity of tested compound/ibuprofen) [1] | analgesic activity (in words) (thermal pain (hot plate)) | Ulcerogenicity % Protection (% inhibition of ulcer relative to ibuprofen) (rat stomach mucosa) | histopathological findings in stomach transverse sections [2] | IC50 (5-LOX) | IC50 (COX-1) | IC50 (COX-2) | also measured
CC(C)Cc1ccc(C(C)C(=O)Nc2c(C#N)c3n(c2C(=O)Nc2ccc(Br)cc2)CCC3)cc1 (racemic) [Compound 19, (R,S)-N-(4-Bromophenyl)-7-cycno-6-(2-(4-isobutylphenyl)propanamido)-2,3-dihydro-1H-pyrrolizine-5-carboxamide] | 13.82% | 22.44% | 38.79% | 0.95 | lower than that of ibuprofen | 100% | normal mucosal glands with no histopathological effects |  |  |  | anti-inflammatory activity (in words) [1]: weak activity after the first hour; melting point: 217 to 219 °C
CC1(C)Cc2c(-c3ccccc3)c(-c3ccc(Cl)s3)c(CC(=O)O)n2C1 [Compound 3] |  |  |  |  |  |  |  | 250 nM | 210 nM |  | 
Cc1ccc(-c2c(-c3ccc(S(C)(=O)=O)cc3)cn3c2CCC3)cc1 [Compound 4] |  |  |  |  |  |  |  | 10000 nM | 700 nM | 5 nM | 
COC1c2c(-c3ccccc3)c(-c3ccc(Cl)cc3)c(C)n2CC1(C)C (stereo not drawn) [Compound 5] |  |  |  |  |  |  |  | 60 nM | 500 nM | 7500 nM | 
Cc1ccc(S(=O)(=O)NC(=O)Cc2c(-c3ccc(Cl)cc3)c(-c3ccccc3)c3n2CC(C)(C)C3)cc1 [Compound 6] |  |  |  |  |  |  |  | 260 nM |  |  | IC50 (mPGES-1): 4800 nM
N#Cc1c(N)c(C(=O)Nc2ccc(C(=O)O)cc2)n2c1CCC2 [Compound 7] |  |  |  |  |  |  |  |  |  |  | reduction in rat paw edema (rat paw edema): approximately 50%
Cc1ccc(S(=O)(=O)Nc2c(C#N)c3n(c2C(=O)Nc2ccc(Br)cc2)CCC3)cc1 [Compound 17, N-(4-Bromophenyl)-7-cyano-6-(4-methylphenylsulfonamido)-2,3-dihydro-1H-pyrrolizine-5-carboxamide] | 27.19% | 40.55% | 49.47% | 1.21 | higher analgesic activity than ibuprofen; also recorded: the most active | 83.69% | little histopathological effects such as congested blood vessels and variable degrees of leukocytes infiltration |  |  |  | IC50 (COX-1 (ovine)): 5010 nM; analgesic potency relative to ibuprofen (thermal pain (hot plate); 0.48 mmol/kg): 1.03 to 1.27 times; Ulcerogenicity UI (ulcer index) (rat stomach mucosa): 2.26; IC50 [3]: 1720 nM; SI (COX-2 selectivity index = IC50 of COX-1/IC50 of COX-2) [3]: 2.91
N#Cc1c(NC(=O)C(=O)Nc2c(C#N)c3n(c2C(=O)Nc2ccc(Br)cc2)CCC3)c(C(=O)Nc2ccc(Br)cc2)n2c1CCC2 [Compound 18, N^1,N^2-Bis(5-((4-Bromophenyl)carbamoyl)-7-cycno-2,3-dihydro-1H-pyrrolizin-6-yl)oxalamide] | 6.91% | 17.72% | 22.42% | 0.55 | lower than that of ibuprofen | 68.18% | little histopathological effects such as congested blood vessels and variable degrees of leukocytes infiltration |  |  |  | anti-inflammatory activity (in words) [1]: lower activity than both ibuprofen and the parent compound 12; IC50 (COX-1 (ovine)): 5100 nM; Ulcerogenicity UI (ulcer index) (rat stomach mucosa): 4.41; melting point: 318 to 321 °C; IC50 [3]: 850 nM; SI (COX-2 selectivity index = IC50 of COX-1/IC50 of COX-2) [3]: 6.03
O=C(c1ccccc1)c1ccc2n1CCC2C(=O)O (stereo not drawn) [Ketorolac, ketorolac] |  |  |  |  |  |  |  |  | 1230 nM | 3600 nM | selectivity ratio for COX-1 (COX-1; COX-1 over COX-2): 2.9
CC1(C)Cc2c(-c3ccccc3)c(-c3ccc(Cl)cc3)c(CC(=O)O)n2C1 [Licofelone, licofelone] |  |  |  |  |  |  |  | 180 nM | 210 nM | > 30000 nM | 
